The target of this experiment is KAT2A (Homo sapiens, UniProt Q92830). Description: KAT2A degradation, Western Blot (Jess), MOLM-13 cells. Further details: degrader, Western blot. The conditions noted are these: MOLM-13 cells, KAT2A, 24 h, Western Blot, vs DMSO; read-out: KAT2A MOLM-13 DC50. It is filed as cell-based. The procedure: MOLM-13 cells or NCI-H1048 cells were used for Western Blot analysis of KAT2A degradation. KAT2B degradation can be measured in a similar manner with NCI-H1048 cells.
MOLM-13 cells were maintained at 37° C. in 5% CO2 and 90% humidity in RPMI 1640 supplemented with 20% fetal bovine serum (FBS) and 1× penicillin/streptomycin. Cells were plated in full media at 1-2 million cells/2 mL in a 6-well tissue culture treated plate with or without compounds for 24 h at 37° C. in 5% CO2.
MOLM-13 cells or NCI-H1048 cells were washed with PBS, then lysed with RIPA buffer containing 1×protease and phosphatase inhibitors (SantaCruz Biotechnologies Cat #sc-24948A). Protein was isolated by centrifugation at 12,000×g for 10 minutes at 4° C. and supernatant was collected. Protein was quantified via Bradford assay. Samples were diluted to 4 μg lysate in 16 μL RIPA buffer and then 4 μL of Jess Sample Buffer. Samples were heated at 95° C. for 5 minutes. Samples were loaded onto 12-230 kDa Jess™ Separation Module, 8×25 capillary cartridges (SM-W004, Biotechne). Antibodies loaded were: Primary antibody for KAT2A (GCN5L2 (C26A10) Rabbit mAb (3305, CST)) and for KAT2B (PCAF (C14G9)) Rabbit mAb (3378, CST) at 1:1000 and Anti-Rabbit Detection Module for Jess™ (Cat No #DM-001, Biotechne). Signal was detected by chemiluminescence.
DC50 values were determined from percent reduction of protein as compared to the DMSO control.

KAT2A, sequence (Q92830 whole entry): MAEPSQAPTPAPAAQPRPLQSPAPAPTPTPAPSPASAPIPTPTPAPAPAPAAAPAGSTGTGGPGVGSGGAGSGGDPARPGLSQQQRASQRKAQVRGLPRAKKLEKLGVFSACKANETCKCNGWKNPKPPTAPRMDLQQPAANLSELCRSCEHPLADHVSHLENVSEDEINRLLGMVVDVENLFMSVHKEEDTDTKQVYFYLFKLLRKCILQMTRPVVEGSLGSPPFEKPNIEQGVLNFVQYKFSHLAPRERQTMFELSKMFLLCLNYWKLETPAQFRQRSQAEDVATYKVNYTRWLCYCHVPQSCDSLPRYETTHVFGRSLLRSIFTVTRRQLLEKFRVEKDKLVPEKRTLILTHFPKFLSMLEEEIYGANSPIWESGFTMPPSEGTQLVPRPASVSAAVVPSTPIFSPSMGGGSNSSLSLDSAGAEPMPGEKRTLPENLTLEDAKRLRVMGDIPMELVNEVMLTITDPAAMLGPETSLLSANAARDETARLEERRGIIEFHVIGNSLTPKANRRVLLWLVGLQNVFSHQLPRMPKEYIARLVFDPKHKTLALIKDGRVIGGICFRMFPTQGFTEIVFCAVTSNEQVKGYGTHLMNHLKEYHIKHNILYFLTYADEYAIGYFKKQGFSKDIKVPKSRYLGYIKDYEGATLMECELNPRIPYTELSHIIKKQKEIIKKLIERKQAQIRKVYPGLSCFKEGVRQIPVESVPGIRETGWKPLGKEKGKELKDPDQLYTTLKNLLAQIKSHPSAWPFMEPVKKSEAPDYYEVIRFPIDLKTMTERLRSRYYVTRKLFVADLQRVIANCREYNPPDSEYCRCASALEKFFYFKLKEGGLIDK

One may read the DC50 as the midpoint of the concentration-degradation curve. For the compound `CN1C[C@H](Nc2cnn(C)c(=O)c2Br)C[C@H](c2ccc(C(=O)N3CCN(Cc4cccc5c4CN(C4CCC(=O)NC4=O)C5=O)CC3)cc2)C1` (stereo partly drawn) [Compound 79], the DC50 is 1 to 30 nM.

For `CN1C[C@H](Nc2cnn(C)c(=O)c2Br)C[C@H](c2ccc(C(=O)N3CCN(Cc4ccc(C5CCC(=O)NC5=O)cc4)CC3)cc2)C1` (stereo partly drawn) [Compound 80], the DC50 was below 1 nM.

`CN1C[C@H](Nc2cnn(C)c(=O)c2Br)C[C@H](c2ccc(C(=O)N3CCC(c4ccc(C5CCC(=O)NC5=O)cc4)CC3)cc2)C1` (stereo partly drawn) [Compound 81]: the DC50 lay within 1 to 30 nM.

With `CN1C[C@H](Nc2cnn(C)c(=O)c2Br)C[C@H](c2ccc(C(=O)N3CCC4(CCN(c5ccc(C6CCC(=O)NC6=O)cc5)C4)C3)cc2)C1` (stereo partly drawn) [Compound 82], the DC50 is below 1 nM.

As to `CN1C[C@H](Nc2cnn(C)c(=O)c2Br)C[C@H](c2ccc(C(=O)N3CCC(c4cccc5c4CN(C4CCC(=O)NC4=O)C5=O)CC3)cc2)C1` (stereo partly drawn) [Compound 83], the DC50 was 1 to 30 nM.

`CN1C[C@H](Nc2cnn(C)c(=O)c2)C[C@H](c2ccc(CN3CCC(c4ccc5c(c4)CN(C4CCC(=O)NC4=O)C5=O)CC3)cc2)C1` (stereo partly drawn) [Compound 85]: the DC50 was above 30 nM.

On to `CN1C[C@H](Nc2cnn(C)c(=O)c2Br)C[C@H](c2ccc(CN3CCC(c4ccc(C5CCC(=O)NC5=O)cc4)CC3)cc2)C1` (stereo partly drawn) [Compound 87], for which the DC50 lay within 1 to 30 nM.

In the case of `CN1C[C@H](Nc2cnn(C)c(=O)c2Br)C[C@H](c2ccc(CN3CCC4(CC3)CCN(c3ccc(C5CCC(=O)NC5=O)cc3)CC4)cc2)C1` (stereo partly drawn) [Compound 88], the DC50 is below 1 nM.

With `CN1C[C@H](Nc2cnn(C)c(=O)c2Br)C[C@H](c2ccc(CN3CCC4(CCN(c5ccc(C6CCC(=O)NC6=O)cc5)C4)C3)cc2)C1` (stereo partly drawn) [Compound 89], the DC50 is below 1 nM.

As to `CN1C[C@H](Nc2cnn(C)c(=O)c2Cl)C[C@H](c2ccc(C(=O)N3CCC(c4cccc5c4CN(C4CCC(=O)NC4=O)C5=O)CC3)cc2)C1` (stereo partly drawn) [Compound 91], the DC50 was above 30 nM.

With `CN1C[C@H](Nc2cnn(C)c(=O)c2Br)C[C@H](c2ccc(CN3CCC(c4cccc5c4CN(C4CCC(=O)NC4=O)C5=O)CC3)cc2)C1` (stereo partly drawn) [Compound 92], the DC50 lay within 1 to 30 nM.

As for `CN1C[C@H](Nc2cnn(C)c(=O)c2Br)C[C@H](c2ccc(C(=O)N3CC(Oc4ccc5c(c4)CN(C4CCC(=O)NC4=O)C5=O)C3)cc2)C1` (stereo partly drawn) [Compound 93], the DC50 is below 1 nM.

In the case of `CN1C[C@H](Nc2cnn(C)c(=O)c2Cl)C[C@H](c2ccc(CN3CCC(c4cccc5c4CN(C4CCC(=O)NC4=O)C5=O)CC3)cc2)C1` (stereo partly drawn) [Compound 94], the DC50 was above 30 nM.

On to `CN1C[C@H](Nc2cnn(C)c(=O)c2Br)C[C@H](c2ccc(CN3CC(Oc4ccc5c(c4)C(=O)N(C4CCC(=O)NC4=O)C5=O)C3)cc2)C1` (stereo partly drawn) [Compound 95], for which the DC50 is below 1 nM.

In the case of `CN1C[C@H](Nc2cnn(C)c(=O)c2Br)C[C@H](c2ccc(C(=O)N3CCC(N4CCN(c5ccc6c(c5)C(=O)N(C5CCC(=O)NC5=O)C6=O)CC4)CC3)cc2)C1` (stereo partly drawn) [Compound 96], the DC50 was below 1 nM.

As to `CN1C[C@H](Nc2cnn(C)c(=O)c2Br)C[C@H](c2ccc(C(=O)N3CCC4(CC3)CN(c3ccc5c(c3)C(=O)N(C3CCC(=O)NC3=O)C5=O)C4)cc2)C1` (stereo partly drawn) [Compound 97], the DC50 is below 1 nM.

On to `CN1C[C@H](Nc2cnn(C)c(=O)c2Br)C[C@H](c2ccc(C(=O)N3CCC4(CCN(c5ccc6c(c5)C(=O)N(C5CCC(=O)NC5=O)C6=O)C4)C3)cc2)C1` (stereo partly drawn) [Compound 98], for which the DC50 was in the range of 1 to 30 nM.

In the case of `CN1C[C@H](Nc2cnn(C)c(=O)c2Br)C[C@H](c2ccc(CN3CCN(Oc4cccc5c4CN(C4CCC(=O)NC4=O)C5=O)CC3)cc2)C1` (stereo partly drawn) [Compound 99], the DC50 was below 1 nM.

For `CN1C[C@H](Nc2cnn(C)c(=O)c2Br)C[C@H](c2ccc(C(=O)N3CCN(Cc4cccc(C5CCC(=O)NC5=O)c4)CC3)cc2)C1` (stereo partly drawn) [Compound 100], the DC50 is below 1 nM.

In the case of `CN1C[C@H](Nc2cnn(C)c(=O)c2Br)C[C@H](c2ccc(CN3CCN(c4cccc(N5CCC(=O)NC5=O)c4)CC3)cc2)C1` [Compound 101], the DC50 fell in the range of 1 to 30 nM.

Regarding `CN1C[C@H](Nc2cnn(C)c(=O)c2Br)C[C@H](c2ccc(C(=O)N3CCN(Cc4ccc(N5CCC(=O)NC5=O)cc4)CC3)cc2)C1` [Compound 102], the DC50 was above 30 nM.

Turning to `CN1C[C@H](Nc2cnn(C)c(=O)c2Br)C[C@H](c2ccc(CNC3CN(c4ccc(C5CCC(=O)NC5=O)cc4)C3)cc2)C1` (stereo partly drawn) [Compound 103], the DC50 is below 1 nM.

Turning to `CN1C[C@H](Nc2cnn(C)c(=O)c2Cl)C[C@H](c2ccc(CN3CCN(c4ccc(C5CCC(=O)NC5=O)cc4)CC3)cc2)C1` (stereo partly drawn) [Compound 104], the DC50 fell in the range of 1 to 30 nM.

For `CN1C[C@H](Nc2ccn(C)c(=O)c2Cl)C[C@H](c2ccc(COc3ccc4c(c3)C(=O)N(C3CCC(=O)NC3=O)C4=O)cc2)C1` (stereo partly drawn) [Compound 105], the DC50 fell in the range of 1 to 30 nM.

On to `CN1C[C@H](Nc2cnn(C)c(=O)c2Br)C[C@H](c2ccc(CNc3ccc4c(c3)C(=O)N(C3CCC(=O)NC3=O)C4=O)cc2)C1` (stereo partly drawn) [Compound 106], for which the DC50 is below 1 nM.

As for `CN1C[C@H](Nc2cnn(C)c(=O)c2Br)C[C@H](c2ccc(C(=O)N3CCC(CN4CCC(c5ccc6c(c5)C(=O)N(C5CCC(=O)NC5=O)C6=O)CC4)CC3)cc2)C1` (stereo partly drawn) [Compound 107], the DC50 was below 1 nM.

Turning to `CN1C[C@H](Nc2cnn(C)c(=O)c2Br)C[C@H](c2ccc(CN3CCC4(CC3)CN(c3ccc5c(c3)C(=O)N(C3CCC(=O)NC3=O)C5=O)C4)cc2)C1` (stereo partly drawn) [Compound 108], the DC50 was below 1 nM.

As for `CN1C[C@H](Nc2cnn(C)c(=O)c2Br)C[C@H](c2ccc(CN3CCC4(CCN(c5ccc6c(c5)C(=O)N(C5CCC(=O)NC5=O)C6=O)C4)C3)cc2)C1` (stereo partly drawn) [Compound 109], the DC50 is below 1 nM.

For the compound `CN1C[C@H](Nc2cnn(C)c(=O)c2Br)C[C@H](c2ccc(C(=O)N3CCN(CC4CCN(c5ccc6c(c5)C(=O)N(C5CCC(=O)NC5=O)C6=O)CC4)CC3)cc2)C1` (stereo partly drawn) [Compound 111], the DC50 is below 1 nM.

On to `CN1C[C@H](Nc2cnn(C)c(=O)c2Br)C[C@H](c2ccc(C(=O)N3CCC(F)(CN4CCN(c5ccc6c(c5)C(=O)N(C5CCC(=O)NC5=O)C6=O)CC4)CC3)cc2)C1` (stereo partly drawn) [Compound 112], for which the DC50 was below 1 nM.

With `CN1C[C@H](Nc2cnn(C)c(=O)c2Br)C[C@H](c2ccc(CN3CCC(c4ccc5c(c4)CN(C4CCC(=O)NC4=O)C5=O)C3)cc2)C1` (stereo partly drawn) [Compound 113], the DC50 was below 1 nM.

Consider `CN1C[C@H](Nc2cnn(C)c(=O)c2Br)C[C@H](c2ccc(C(=O)N3CCC(c4ccc(NC5CCC(=O)NC5=O)cc4)CC3)cc2)C1` (stereo partly drawn) [Compound 115], for which the DC50 is below 1 nM.

Turning to `CN1C[C@H](Nc2cnn(C)c(=O)c2Br)C[C@H](c2ccc(CN3CCN(c4cccc5c4CN(C4CCC(=O)NC4=O)C5=O)CC3)cc2)C1` (stereo partly drawn) [Compound 116], the DC50 was below 1 nM.

With `CN1C[C@H](Nc2cnn(C)c(=O)c2Br)C[C@H](c2ccc(COC3CN(c4ccc5c(c4)C(=O)N(C4CCC(=O)NC4=O)C5=O)C3)cc2)C1` (stereo partly drawn) [Compound 117], the DC50 was below 1 nM.

`CN1C[C@H](Nc2cnn(C)c(=O)c2Br)C[C@H](c2ccc(C(=O)N3CCC4(CCN(CC5CCN(c6ccc7c(c6)C(=O)N(C6CCC(=O)NC6=O)C7=O)CC5)C4)C3)cc2)C1` (stereo partly drawn) [Compound 118]: the DC50 was below 1 nM.

`CN1C[C@H](Nc2cnn(C)c(=O)c2Br)C[C@H](c2ccc(C(=O)N3CCC(Oc4cccc(C5CCC(=O)NC5=O)c4)CC3)cc2)C1` (stereo partly drawn) [Compound 119]: the DC50 fell in the range of 1 to 30 nM.

Values taken from patent US20260306640A1, “TECHNOLOGIES TARGETING CELL STATES” (Auron Therapeutics, Inc., priority 2023, published 2026).
